“Also recorded” adds a separate entry of the source. Where two headings read alike, the source gives them in different places. Where no end group is shown, it is not given here.
Tests used:
human islets [1] = assay: Viability of cultured human islets; format: cell-based
Procedure: (§1) Human islet cells were similarly incubated with a N-94 peptide or C-95 peptide for varying periods of time following which GSIS assay and viability measurements were conducted. Insulin was measured using Insulin ELISA kit (Mercodia, Uppsala, Sweden).
(§2) 50 human islets were incubated with N-94 peptide or C-95 peptide for 1, 3, 4, 6 and 9 days following which GSIS assay and viability measurement were conducted. Insulin was measured using Insulin ELISA kit (Mercodia).
Human islets were treated with various peptides of the presently disclosed subject matter and viability was assessed at twenty days post-treatment.

[2] = test system: C57BL/6 mice made diabetic by single streptozotocin injection; assay: Minimal islet mass transplantation of peptide-pretreated islets into streptozotocin-diabetic mice, blood glucose; format: in vivo, mouse
Procedure: (§3) Human islet cells were incubated overnight with 1 μM N-94 peptide (SEQ ID NO: 1), N-94/C6 peptide (SEQ ID NO: 62), N104 peptide, Tearpep3 peptide (SEQ ID NO: 21), Tearpep3/C6 peptide (SEQ ID NO: 33), C-95 peptide, or no treatment followed by GSIS assays (se FIG. 2A for the structures of, and Table 2 for the sequences of, these exemplary peptides). C57BL/6 islet cells were pretreated with 4 μM N-94 N-94 peptide or C-95 peptide or saline for 24 hours followed by minimal islet mass transplantation into syngeneic diabetic recipients. Tail vein blood glucoses were measured daily.
75 C57Bl/6 islets were transplanted into C57BL/6 recipients made diabetic by single STZ injection (220 mg/Kg). Islets were pretreated with 4 μM N-94 peptide or C-95 peptide or saline for 24 hours prior to transplantation into diabetic mice (n=2 mice/group). Tail vein blood glucoses were measured daily. Incubation of islets with N-94 peptide permanently returned transplanted mice to normoglycemia with glucoses below 200 mg/dL within 9 days posttransplant. With C-95 peptide treatment, the glucose at Day 12 posttransplant was <250 mg/dL. Mice transplanted with untreated islets remained diabetic.
FIG. 4 is a graph of blood glucose levels of pancreatic islets treated with the indicated peptides and transplanted into diabetic mice observed for 60 days. Shown is a graph of blood glucose levels after minimal transplantation of 75 N-94 peptide-treated, C-95 peptide-treated, or saline-treated C57Bl/6 islets under the kidney capsule of C57BL/6 mice made diabetic before transplantation by single streptozotocin injection (220 mg/kg; two mice per group). Pretreatment was for 24 hours. Tail vein blood was collected daily for glucose analyses. Each line represents the progressive blood glucose level of a single diabetic mouse. Six mice each received N-94 peptide treated islets (black), six others received C-95 peptide treated islets (blue), and four received saline treated islets (orange). N-94 peptide permanently returned transplanted mice to normoglycemia with glucose below 200 mg/dL within 9 days post-transplantation with treatment efficacy continuing after 40 days post-transplantation. With C-95 peptide treatment, the glucose at Day 12 post-transplant was <250 mg/dL. Average blood glucoses measured between Days 22 to 43 were 142.9±17.6 mg/dL for the N-94 group compared to 275±34.8 mg/dL for the C-95 peptide group.

C57BL/6 islets [3] = format: cell-based, mouse; conditions: for viability of islets: C57BL/6, mouse, 4 μM; for mouse islet viability (in words): isolated mouse pancreatic islets, 4 μM peptide, in vitro
Procedure: C57BL/6 islets (see FIG. 3) were cultured with 4 μM N-94 (N-94) peptide or control peptide C-95 for different time periods ranging from 1-15 days in DMEM at 37° C. Viability of islets was scored by propidium iodide-fluorescein diacetate staining. 35 C57BL/6 islets/per well were cultured with 4 μM of N-94 peptide analog N-94 or control C-95 peptide for 1, 2, 5, 7,10 or 15 days in DMEM at 37° C. Viability of islets was scored after staining with PI/FDA. Islets cultured with N-94 peptide retained 95±3, 89±15, 80±17.5 and 61±21% viability while islets cultured with C-95 peptide retained 95±3, 87±13, 40±28 and 20±19% viability at Day 1, 5, 10 and 15.

C57BL/6 islets [4] = assay: Glucose-stimulated insulin secretion (GSIS) assay, mouse islets; format: cell-based; conditions: for insulin secreted in GSIS assay: 50 islets/well, high glucose (28 mM); for GSIS: mouse islet cells
Procedure: C57BL/6 islets were also incubated overnight with 4 μM N-94 peptide (SEQ ID NO: 1) or C-95 peptide or no additive following which Glucose-stimulated Insulin secretion (GSIS) assays were performed.
C57BL/6 islets were incubated overnight with 4 μM N-94 peptide or C-95 peptide or no additive. 50 islets/well were used to perform Glucose stimulated Insulin secretion (GSIS) assay. Islets that were untreated or treated with C-95 peptide or with N-94 peptide and stimulated with high glucose (28 mM) secreted 39.86±7.81, 54.9±18.14, and 91±22.16 ng/ml Insulin. N-94 peptide increased insulin secretion by 2-fold compared to untreated control. Viability of human islets incubated with N-94 peptide at Day 1, 3, 4, 6, and 9 was 95±4, 95±3, 94±4, 84±9, and 80±15% while with C-95 it was 94±4, 91±7, 88±8, 66±16, and 65±18%. With saline it was 94±4, 94±3, 88±8, 58±19, and ˜53. While GSIS results were similar to the mouse results, maximum insulin secretion activity with N-94 peptide was only observed on Day 1 and 3.

human sensory neurons = assay: Viability of iPSC-derived sensory neurons stressed with inflammatory cytokines (Alamar Blue); format: cell-based; conditions: day 21 neurons, IFN-γ (1000 U/mL)+TNF-α (100 ng/mL), 1 mM peptide, 72 hours
Procedure: Whether the peptides of the presently disclosed subject matter could enhance viability of human sensory neurons stressed with inflammatory cytokines was tested. Sensory neurons were derived from Induced Pluripotent Stem Cells (iPSC). iPSCs were seeded into 12 well Matrigel-coated plates (1.25×10^5 cells/well). Neural differentiation was initiated when cells were confluent using KSR medium. 100 nM of LDN-193189 and […] of SB431542 were added to the culture from day 0 to 6, to inhibit SMAD signaling. On day 4, 25% of N2 medium was added to the culture, with 100% of N2 medium at day 10. Sensory neurons induction was initiated at day 2 (day 2-10), with the addition of […] CHIR 99021, […] SU5402, and […] DAPT. From day 10 to day 21 neuron maturation was promoted with 25 ng/mL of β-NGF, BDNF, and GDNF. Cells were fed every day.
Sensory neurons (day 21) were incubated with IFN-g (1000 U/mL)+TNF-α (100 ng/mL) with or without 1 mM of the N-94/C-6 peptide or the negative control C-95 peptide for 72 hours in a 96-well plate. Alamar Blue reagent (10%) was added in each well. Fluorescence was measured after 6 hours (excitation at 545 nm/emission at 590 nm).

human islets [5] = assay: Glucose-stimulated insulin secretion (GSIS) assay, human islets; format: cell-based; conditions: for GSIS response / insulin secretion compared to C-95 peptide: human islets, 1 μM peptide overnight, 28 mM glucose
Procedure: as §1, §3, §2
Human islets were incubated overnight with 1 μM N-94 peptide, N-94/C6 peptide, N104 peptide, Tearpep3 peptide, Tearpep3/C6 peptide, C-95 peptide, or no treatment and GSIS assay performed.

[6] = 75 islets pretreated 24 hours with 4 μM peptide, STZ-diabetic C57BL/6 mice
[7] = C57BL/6 islets, 4 μM peptide overnight

Sequence	viability of human islets (human islets [1]; 1 days) [%]	viability of human islets (human islets [1]; 3 days) [%]	viability of human islets (human islets [1]; 4 days) [%]	viability of human islets (human islets [1]; 6 days) [%]	viability of human islets (human islets [1]; 9 days) [%]	average blood glucose between Days 22 to 43 [2, 6] [mg/dL]	viability of islets (C57BL/6 islets [3]; 1 days) [%]	viability of islets (C57BL/6 islets [3]; 5 days) [%]	viability of islets (C57BL/6 islets [3]; 10 days) [%]	viability of islets (C57BL/6 islets [3]; 15 days) [%]	mouse islet viability (in words) (C57BL/6 islets [3])	insulin secreted in GSIS assay (C57BL/6 islets [4]; [7]) [ng/mL]	GSIS (C57BL/6 islets [4]; 4 μM peptide overnight) [ng/mL]	GSIS response / insulin secretion compared to C-95 peptide (human islets [5])	further results
GKNRRKNWHAQLFVL [Tearpep3/N-104]															viability of human islets twenty days after isolation (in words) (human islets [1]; human islets, 4 μM peptide, versus 4 μM Tearpep3/C-6 and lacritin N-94): superior viability
EDASSDSTGADPAQEAGTSKPNEE [C-95, reference compound]	94±4	91±7	88±8	66	65±18	275 ± 34.8	95±3	87±13	40±28	20	not	54.9 ± 18.14	54.9 ± 18.1		blood glucose at Day 12 posttransplant [2, 6]: < 250 mg/dL
KQFIENGSEFAQKLLKKFS [N-94/C-6, fragment of lacritin]															viability of stressed human sensory neurons (in words) (human sensory neurons): restored viability
KQFIENGSEFAQKLLKKFSLLKPWA [N-94]	95±4	95±3	94±4	84	80±15	142.9 ± 17.6	95±3	89±15	80±17.5	61	promotes mouse islet viability	91 ± 22.16	91 ± 22	near doubling; also recorded: nearly doubled	time to normoglycemia (glucose below 200 mg/dL) posttransplant [2, 6]: ≤ 9 days; treatment efficacy continuing posttransplant [2, 6]: > 40 days; blood glucose on return to normoglycemia ([2]; 75 islets pretreated 24 hours with 4 μM peptide, transplanted into STZ-diabetic C57BL/6 mice, within 9 days posttransplant): below 200 mg/dL; effect of peptide-pretreated islet transplant on diabetes (in words) ([2]; pretreated islets transplanted into streptozotocin diabetic mice): rapidly restores normoglycemia; also recorded: reverse disease; increase of GSIS / insulin secretion compared to untreated (C57BL/6 islets [4]; C57BL/6 islets, 4 μM peptide overnight, high glucose): ~2 fold; glucose-dependent insulin secretion (in words) (C57BL/6 islets [4]; isolated mouse pancreatic islets, 4 μM peptide, treatment 24 hours after islet isolation): promotes
AQKLLKKFSLLKPWA [N-104]														~3.5 fold	rank of activity in glucose-dependent insulin secretion assay (human islets [5]; 100 human islets, 1 μM peptide, 24 hours): Most active
